Assay results reported in the NIST ThermoML archive (doi:10.1016/j.fluid.2014.04.038).
Where “and” joins values, the source holds several entries; their conditions need not be identical. Equal values may be shown once.

Settings: Hot wire method

CCF [fluoroethane]
Liquid
Settings | thermal conductivity
233.99 K | 0.1496 W/m/K
234 K | 0.1487 W/m/K
234.01 K | 0.1487 W/m/K
234.32 K | 0.1483 W/m/K and 0.1482 W/m/K and 0.1492 W/m/K
234.57 K | 0.1496 W/m/K
234.63 K | 0.1492 W/m/K
234.64 K | 0.149 W/m/K
244.01 K | 0.1429 W/m/K
244.04 K | 0.1429 W/m/K and 0.1423 W/m/K
244.22 K | 0.1424 W/m/K
244.25 K | 0.143 W/m/K
244.26 K | 0.1433 W/m/K
244.5 K | 0.1426 W/m/K
244.51 K | 0.142 W/m/K
244.54 K | 0.1426 W/m/K
253.79 K | 0.1362 W/m/K and 0.1361 W/m/K
253.8 K | 0.1362 W/m/K
254.08 K | 0.1364 W/m/K
254.09 K | 0.1368 W/m/K and 0.1363 W/m/K
254.12 K | 0.1357 W/m/K
254.14 K | 0.135 W/m/K
254.15 K | 0.1346 W/m/K
254.36 K | 0.1352 W/m/K
254.37 K | 0.1358 W/m/K
254.41 K | 0.1355 W/m/K
254.71 K | 0.1359 W/m/K
254.75 K | 0.1355 W/m/K
254.79 K | 0.1354 W/m/K
263.94 K | 0.1286 W/m/K
263.95 K | 0.128 W/m/K and 0.1283 W/m/K
264.16 K | 0.1283 W/m/K
264.17 K | 0.1287 W/m/K
264.19 K | 0.1288 W/m/K
264.43 K | 0.1285 W/m/K
264.51 K | 0.1293 W/m/K and 0.129 W/m/K
274.37 K | 0.1215 W/m/K
274.39 K | 0.1214 W/m/K
274.4 K | 0.1213 W/m/K
274.62 K | 0.1218 W/m/K
274.64 K | 0.1224 W/m/K
274.66 K | 0.122 W/m/K
274.95 K | 0.1224 W/m/K
274.97 K | 0.1224 W/m/K
274.98 K | 0.1226 W/m/K
284.17 K | 0.1146 W/m/K
284.22 K | 0.1146 W/m/K
284.23 K | 0.1153 W/m/K
284.43 K | 0.1154 W/m/K
284.46 K | 0.1155 W/m/K
284.47 K | 0.1152 W/m/K
284.78 K | 0.1163 W/m/K
284.8 K | 0.1164 W/m/K
284.81 K | 0.1162 W/m/K
294.43 K | 0.1097 W/m/K
294.59 K | 0.1098 W/m/K
294.63 K | 0.1109 W/m/K and 0.1095 W/m/K
294.64 K | 0.1105 W/m/K
294.65 K | 0.1103 W/m/K
294.7 K | 0.1103 W/m/K
294.89 K | 0.1094 W/m/K
294.9 K | 0.1096 W/m/K
294.91 K | 0.1093 W/m/K
294.94 K | 0.1112 W/m/K and 0.1104 W/m/K
294.95 K | 0.111 W/m/K
295.22 K | 0.11 W/m/K and 0.1098 W/m/K
304.39 K | 0.1056 W/m/K
304.4 K | 0.1056 W/m/K
304.41 K | 0.1057 W/m/K
304.67 K | 0.1054 W/m/K
304.68 K | 0.1056 W/m/K and 0.1052 W/m/K
305.07 K | 0.1055 W/m/K
305.19 K | 0.1057 W/m/K and 0.1058 W/m/K
314.36 K | 0.1007 W/m/K and 0.1002 W/m/K
314.38 K | 0.1003 W/m/K
314.4 K | 0.1003 W/m/K and 0.1012 W/m/K
314.46 K | 0.1013 W/m/K
314.68 K | 0.1009 W/m/K
314.69 K | 0.1008 W/m/K
314.7 K | 0.1003 W/m/K
314.71 K | 0.1011 W/m/K and 0.1008 W/m/K
314.72 K | 0.1006 W/m/K
315.05 K | 0.1008 W/m/K
315.06 K | 0.1007 W/m/K
315.07 K | 0.1005 W/m/K and 0.101 W/m/K and 0.1008 W/m/K
315.08 K | 0.1002 W/m/K
324.64 K | 0.09597 W/m/K and 0.09452 W/m/K
324.66 K | 0.09557 W/m/K
324.85 K | 0.09515 W/m/K
324.86 K | 0.09533 W/m/K
324.87 K | 0.09498 W/m/K
325.28 K | 0.09515 W/m/K
325.29 K | 0.09565 W/m/K
325.3 K | 0.09512 W/m/K

Gas
Settings | thermal conductivity [W/m/K]
236.45 K, 86.1 kPa | 0.00838
244.29 K, 84.5 kPa | 0.00938
245.47 K, 132.2 kPa | 0.00931
246.92 K, 132.2 kPa | 0.00972
248.24 K, 132.2 kPa | 0.00989
248.83 K, 84.5 kPa | 0.00985
254.05 K, 84.5 kPa | 0.01031
255.52 K, 201.2 kPa | 0.01058
260.98 K, 132.4 kPa | 0.01112
265.31 K, 286.1 kPa | 0.01142
266.46 K, 286.1 kPa | 0.01169
275.33 K, 370.8 kPa | 0.01266
276 K, 139.9 kPa | 0.01306
276.13 K, 370.8 kPa | 0.01296
277.34 K, 370.8 kPa | 0.01294
278.06 K, 139.9 kPa | 0.01337
278.85 K, 139.9 kPa | 0.01329
286.13 K, 481.4 kPa | 0.01426
286.26 K, 271.3 kPa | 0.01438
287.56 K, 578.8 kPa | 0.01402
287.6 K, 481.4 kPa | 0.01425
287.72 K, 271.3 kPa | 0.01452
288.9 K, 481.4 kPa | 0.01448
289.14 K, 271.3 kPa | 0.0144
295.76 K, 779.2 kPa | 0.01526
295.78 K, 690.7 kPa | 0.0151
295.97 K, 520.7 kPa | 0.01551
296.2 K, 275.3 kPa | 0.01553
297.07 K, 690.7 kPa | 0.01526
297.24 K, 520.7 kPa | 0.01534
297.64 K, 275.3 kPa | 0.01544
298.46 K, 520.7 kPa | 0.01532
299.03 K, 275.3 kPa | 0.01558
305.63 K, 712.7 kPa | 0.01677
305.93 K, 916.4 kPa | 0.0163
306.16 K, 227 kPa | 0.01673
306.42 K, 1035 kPa | 0.01653
306.59 K, 712.7 kPa | 0.01627
306.71 K, 504.3 kPa | 0.01683
306.93 K, 916.4 kPa | 0.01663
306.93 K, 1035 kPa | 0.01725
306.97 K, 227 kPa | 0.01654
307.36 K, 1035 kPa | 0.01661
307.57 K, 504.3 kPa | 0.01663
307.89 K, 227 kPa | 0.01643
315.53 K, 1227.4 kPa | 0.01838
315.63 K, 1202.4 kPa | 0.01779
315.79 K, 316.7 kPa | 0.01783
315.81 K, 1005.9 kPa | 0.01828
315.87 K, 807.4 kPa | 0.01738
316.01 K, 1341.3 kPa | 0.01815
316.27 K, 1202.4 kPa | 0.01803
316.4 K, 1005.9 kPa | 0.01789
316.4 K, 1341.3 kPa | 0.01835
316.53 K, 1162.6 kPa | 0.01796
316.59 K, 807.4 kPa | 0.01737
316.83 K, 613.8 kPa | 0.01747
316.94 K, 1202.4 kPa | 0.0181
317.06 K, 1341.3 kPa | 0.01801
317.12 K, 1005.9 kPa | 0.01811
318.31 K, 316.7 kPa | 0.01787
321.99 K, 1292.4 kPa | 0.01904
322.07 K, 1292.4 kPa | 0.01921
322.37 K, 797.5 kPa | 0.01858
322.59 K, 797.5 kPa | 0.01847
323.36 K, 797.5 kPa | 0.01857
324.32 K, 1700.6 kPa | 0.01997
324.97 K, 1700.6 kPa | 0.0202
325.27 K, 1362.6 kPa | 0.01957
325.45 K, 1700.6 kPa | 0.02011
326.1 K, 1362.6 kPa | 0.01993
326.61 K, 1095.3 kPa | 0.0197
326.64 K, 968 kPa | 0.01935
326.71 K, 798.3 kPa | 0.01946
326.98 K, 999.2 kPa | 0.01933
